Patent US11278515B2, “Composition for improvement of sleep or for prevention or treatment of sleep disorders, containing beta-lapachone” (AJOU UNIVERSITY INDUSTRY-ACADEMIC COOPERATION FOUNDATION, priority 2016, dated 2022)

System: mice
Assay: pentobarbital-induced sleep test in mice (sleep latency and total sleeping time)
Format: in vivo
Conditions: 30 minutes before pentobarbital 45 mg/kg i.p.
Description: A sleep disorder refers to syndromes in which one cannot fall asleep well and the total sleeping time is short. In order to confirm the effect of improving the sleep quality of beta-lapachone, mice were purchased from Orient Bio Co. Beta-lapachone (Sigma Aldrich) was administered once intraperitoneally or orally to mice at a dose of 0.03, 0.1, 0.3, or 1 mg/kg by concentration, respectively, 30 minutes before induction of sleep, and 0.9% physiological saline was administered to the control mice, and 1 mg/kg of diazepam (MYUNG IN Pharm. Co.), most popular used sleeping pill, was administered intraperitoneally or orally to the positive control mice. 45 mg/kg of pentobarbital ([…] Pharm. Co., Ltd.), a commercially used sedative and sleeping pill, was intraperitoneally administered to mice to induce sleeping after 30 minutes of the above administration.

Compound: CC1(C)CCC2=C(O1)c1ccccc1C(=O)C2=O [beta-lapachone]
- sleep latency (single intraperitoneal administration at 0.03, 0.1, 0.3 or 1 mg/kg, FIG. 1): shortened in a concentration-dependent manner
- total sleeping time (single intraperitoneal administration at 0.03, 0.1, 0.3 or 1 mg/kg, FIG. 2): increased in a concentration-dependent manner
- sleep latency (single oral administration at 0.03, 0.1, 0.3 or 1 mg/kg, FIG. 3): shortened in a concentration-dependent manner
- total sleeping time (single oral administration at 0.03, 0.1, 0.3 or 1 mg/kg, FIG. 4): increased in a concentration-dependent manner
